# Measured values from PubChem BioAssay AID1963835 (Molecular Pharmacology Branch, DTP, NCI, 2024).
# System: 699152-130-R-J1-PDC complex spheroid viability
# Test: Anticancer human tumor 699152-130-R-J1-PDC patient-derived pancreatic carcinoma cell line growth inhibition [POLQ]
# Conditions: for IC50: curve of first compound; for viability, T/C: stronger effect = lower value
# Summary of the method: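 PDC + HUVEC + MSC complex spheroids; POLQ inhibitors ± partner drugs; top conc. at/near clinical Cmax, else 10 microM (SN-38 1 microM), half-log dilutions; 37 degrees C, 5% CO2.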
# [1] = second compound 0.0316 µM, first compound 0.0316 µM
# [2] = second compound 0.0316 µM, first compound 0.1 µM
# [3] = second compound 0.0316 µM, first compound 0.316 µM
# [4] = second compound 0.0316 µM, first compound 1 µM
# [5] = second compound 0.0316 µM, first compound 3.16 µM
# [6] = second compound 0.0316 µM, first compound 10 µM
# [7] = second compound 0.1 µM, first compound 0.0316 µM
# [8] = second compound 0.1 µM, first compound 0.1 µM
# [9] = second compound 0.1 µM, first compound 0.316 µM
# [10] = second compound 0.1 µM, first compound 1 µM
# [11] = second compound 0.1 µM, first compound 3.16 µM
# [12] = second compound 0.1 µM, first compound 10 µM
# [13] = second compound 0.316 µM, first compound 0.0316 µM
# [14] = second compound 0.316 µM, first compound 0.1 µM
# [15] = second compound 0.316 µM, first compound 0.316 µM
# [16] = second compound 0.316 µM, first compound 1 µM
# [17] = second compound 0.316 µM, first compound 3.16 µM
# [18] = second compound 0.316 µM, first compound 10 µM
# [19] = second compound 1 µM, first compound 0.0316 µM
# [20] = second compound 1 µM, first compound 0.1 µM
# [21] = second compound 1 µM, first compound 0.316 µM
# [22] = second compound 1 µM, first compound 1 µM
# [23] = second compound 1 µM, first compound 3.16 µM
# [24] = second compound 1 µM, first compound 10 µM
# [25] = second compound 3.16 µM, first compound 0.0316 µM
# [26] = second compound 3.16 µM, first compound 0.1 µM
# [27] = second compound 3.16 µM, first compound 0.316 µM
# [28] = second compound 3.16 µM, first compound 1 µM
# [29] = second compound 3.16 µM, first compound 3.16 µM
# [30] = second compound 3.16 µM, first compound 10 µM
# [31] = second compound 10 µM, first compound 0.0316 µM
# [32] = second compound 10 µM, first compound 0.1 µM
# [33] = second compound 10 µM, first compound 0.316 µM
# [34] = second compound 10 µM, first compound 1 µM
# [35] = second compound 10 µM, first compound 3.16 µM
# [36] = second compound 10 µM, first compound 10 µM
# 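Further: spheroids exposed to agents for 7 days before viability reading.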
# 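Wherever viability, T/C is given: percent of DMSO vehicle control viability so 100% = vehicle and 0% = no viable signal.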
compound,measurement,setting,value
O=C(c1cc(Cc2n[nH]c(=O)c3ccccc23)ccc1F)N1CCN(C(=O)C2CC2)CC1 + Nc1ccc(C#CCN(C(=O)Cc2ncc(C(F)(F)F)cc2C(F)(F)F)c2ccc(F)cc2)nn1,IC50,second compound 0.0316 µM,> 10 µM
same,IC50,second compound 0.1 µM,> 10 µM
same,IC50,second compound 0.316 µM,> 10 µM
same,IC50,second compound 1 µM,> 10 µM
same,IC50,second compound 3.16 µM,> 10 µM
same,IC50,second compound 10 µM,> 10 µM
same,"viability, T/C",[1],88.9%
same,"viability, T/C",[2],99.8%
same,"viability, T/C",[3],81.6%
same,"viability, T/C",[4],109%
same,"viability, T/C",[5],85.3%
same,"viability, T/C",[6],93.2%
same,"viability, T/C",[7],95%
same,"viability, T/C",[8],110%
same,"viability, T/C",[9],97.8%
same,"viability, T/C",[10],95.4%
same,"viability, T/C",[11],99.6%
same,"viability, T/C",[12],82.3%
same,"viability, T/C",[13],100%
same,"viability, T/C",[14],114%
same,"viability, T/C",[15],101%
same,"viability, T/C",[16],92.8%
same,"viability, T/C",[17],96.3%
same,"viability, T/C",[18],85.3%
same,"viability, T/C",[19],105%
same,"viability, T/C",[20],99.2%
same,"viability, T/C",[21],98.5%
same,"viability, T/C",[22],112%
same,"viability, T/C",[23],86.7%
same,"viability, T/C",[24],77.5%
same,"viability, T/C",[25],108%
same,"viability, T/C",[26],113%
same,"viability, T/C",[27],114%
same,"viability, T/C",[28],98.6%
same,"viability, T/C",[29],88%
same,"viability, T/C",[30],81.8%
same,"viability, T/C",[31],103%
same,"viability, T/C",[32],107%
same,"viability, T/C",[33],108%
same,"viability, T/C",[34],107%
same,"viability, T/C",[35],113%
same,"viability, T/C",[36],97.8%
CC[C@@]1(O)C(=O)OCc2c1cc1n(c2=O)Cc2cc3c(CN(C)C)c(O)ccc3nc2-1 + Cc1cccc(N(C)C(=O)C2C(O)CCN2c2nc(C)cc(C(F)(F)F)c2C#N)c1,IC50,second compound 0.0316 µM,> 0.1 µM
same,IC50,second compound 0.1 µM,> 0.1 µM
same,IC50,second compound 0.316 µM,> 0.1 µM
same,IC50,second compound 1 µM,> 0.1 µM
same,IC50,second compound 3.16 µM,> 0.1 µM
same,IC50,second compound 10 µM,> 0.1 µM
same,"viability, T/C","second compound 0.0316 µM, first compound 0.000316 µM",104%
same,"viability, T/C","second compound 0.0316 µM, first compound 0.001 µM",118%
same,"viability, T/C","second compound 0.0316 µM, first compound 0.00316 µM",95.4%
same,"viability, T/C","second compound 0.0316 µM, first compound 0.01 µM",90.2%
same,"viability, T/C",[1],81.3%
same,"viability, T/C",[2],67.3%
same,"viability, T/C","second compound 0.1 µM, first compound 0.000316 µM",103%
same,"viability, T/C","second compound 0.1 µM, first compound 0.001 µM",103%
same,"viability, T/C","second compound 0.1 µM, first compound 0.00316 µM",91%
same,"viability, T/C","second compound 0.1 µM, first compound 0.01 µM",112%
same,"viability, T/C",[7],82.5%
same,"viability, T/C",[8],58.2%
same,"viability, T/C","second compound 0.316 µM, first compound 0.000316 µM",101%
same,"viability, T/C","second compound 0.316 µM, first compound 0.001 µM",99.2%
same,"viability, T/C","second compound 0.316 µM, first compound 0.00316 µM",116%
same,"viability, T/C","second compound 0.316 µM, first compound 0.01 µM",93.6%
same,"viability, T/C",[13],76.4%
same,"viability, T/C",[14],63.2%
same,"viability, T/C","second compound 1 µM, first compound 0.000316 µM",111%
same,"viability, T/C","second compound 1 µM, first compound 0.001 µM",97.5%
same,"viability, T/C","second compound 1 µM, first compound 0.00316 µM",111%
same,"viability, T/C","second compound 1 µM, first compound 0.01 µM",99.9%
same,"viability, T/C",[19],81.2%
same,"viability, T/C",[20],58.7%
same,"viability, T/C","second compound 3.16 µM, first compound 0.000316 µM",99.7%
same,"viability, T/C","second compound 3.16 µM, first compound 0.001 µM",106%
same,"viability, T/C","second compound 3.16 µM, first compound 0.00316 µM",112%
same,"viability, T/C","second compound 3.16 µM, first compound 0.01 µM",97.5%
same,"viability, T/C",[25],80.5%
same,"viability, T/C",[26],64.1%
same,"viability, T/C","second compound 10 µM, first compound 0.000316 µM",102%
same,"viability, T/C","second compound 10 µM, first compound 0.001 µM",105%
same,"viability, T/C","second compound 10 µM, first compound 0.00316 µM",95.6%
same,"viability, T/C","second compound 10 µM, first compound 0.01 µM",91.8%
same,"viability, T/C",[31],85.5%
same,"viability, T/C",[32],68.8%
O=c1[nH]cc(F)c(=O)[nH]1 + COC1C(OC(N)=O)C(O)C(Oc2ccc3c(O)c(NC(=O)c4ccc(O)c(CC=C(C)C)c4)c(=O)oc3c2C)OC1(C)C,IC50,second compound 0.0316 µM,> 10 µM
same,IC50,second compound 0.1 µM,> 10 µM
same,IC50,second compound 0.316 µM,> 10 µM
same,IC50,second compound 1 µM,> 10 µM
same,IC50,second compound 3.16 µM,> 10 µM
same,IC50,second compound 10 µM,> 10 µM
same,"viability, T/C",[1],101%
same,"viability, T/C",[2],92.8%
same,"viability, T/C",[3],108%
same,"viability, T/C",[4],108%
same,"viability, T/C",[5],91.3%
same,"viability, T/C",[6],75.4%
same,"viability, T/C",[7],109%
same,"viability, T/C",[8],113%
same,"viability, T/C",[9],88.5%
same,"viability, T/C",[10],97.2%
same,"viability, T/C",[11],93.6%
same,"viability, T/C",[12],68.7%
same,"viability, T/C",[13],92.6%
same,"viability, T/C",[14],99.6%
same,"viability, T/C",[15],99.8%
same,"viability, T/C",[16],95.4%
same,"viability, T/C",[17],86%
same,"viability, T/C",[18],65.9%
same,"viability, T/C",[19],104%
same,"viability, T/C",[20],101%
same,"viability, T/C",[21],91%
same,"viability, T/C",[22],105%
same,"viability, T/C",[23],98.5%
same,"viability, T/C",[24],76.8%
same,"viability, T/C",[25],102%
same,"viability, T/C",[26],93.2%
same,"viability, T/C",[27],91.2%
same,"viability, T/C",[28],88.4%
same,"viability, T/C",[29],92.5%
same,"viability, T/C",[30],72.8%
same,"viability, T/C",[31],106%
same,"viability, T/C",[32],108%
same,"viability, T/C",[33],101%
same,"viability, T/C",[34],95.9%
same,"viability, T/C",[35],88.2%
same,"viability, T/C",[36],73%
